From patent US9751869B2, “LXR modulators” (BRISTOL-MYERS SQUIBB COMPANY, priority 2013, dated 2017)
pEC50: −log10 of the molar value.

Biological target: T1, LXRβ (Homo sapiens, UniProt P55055)
T1 construct: Co-transfection expression plasmids, comprising full-length LXRα (pCMX-h LXRα or LXRβ (pCMX-hLXRβ)); expressed in transfected cells; host or cells: CV-1 African green monkey kidney cells, transient transfection with pCMX-hLXRβ
T1 sequence (P55055 1-460): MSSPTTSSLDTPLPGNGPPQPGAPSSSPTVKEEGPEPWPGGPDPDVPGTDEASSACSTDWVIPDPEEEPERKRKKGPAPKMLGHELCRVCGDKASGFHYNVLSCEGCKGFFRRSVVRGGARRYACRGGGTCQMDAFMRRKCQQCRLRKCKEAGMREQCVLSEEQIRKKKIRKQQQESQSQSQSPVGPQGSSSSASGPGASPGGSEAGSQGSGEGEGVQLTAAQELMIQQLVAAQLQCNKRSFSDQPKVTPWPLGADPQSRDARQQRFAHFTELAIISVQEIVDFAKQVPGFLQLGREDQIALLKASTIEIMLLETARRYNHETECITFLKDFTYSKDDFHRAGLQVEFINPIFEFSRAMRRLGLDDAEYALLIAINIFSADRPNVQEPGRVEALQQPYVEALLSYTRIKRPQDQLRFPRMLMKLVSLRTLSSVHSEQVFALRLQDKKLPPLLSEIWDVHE
T1 sequence (P19793 1-462 partner): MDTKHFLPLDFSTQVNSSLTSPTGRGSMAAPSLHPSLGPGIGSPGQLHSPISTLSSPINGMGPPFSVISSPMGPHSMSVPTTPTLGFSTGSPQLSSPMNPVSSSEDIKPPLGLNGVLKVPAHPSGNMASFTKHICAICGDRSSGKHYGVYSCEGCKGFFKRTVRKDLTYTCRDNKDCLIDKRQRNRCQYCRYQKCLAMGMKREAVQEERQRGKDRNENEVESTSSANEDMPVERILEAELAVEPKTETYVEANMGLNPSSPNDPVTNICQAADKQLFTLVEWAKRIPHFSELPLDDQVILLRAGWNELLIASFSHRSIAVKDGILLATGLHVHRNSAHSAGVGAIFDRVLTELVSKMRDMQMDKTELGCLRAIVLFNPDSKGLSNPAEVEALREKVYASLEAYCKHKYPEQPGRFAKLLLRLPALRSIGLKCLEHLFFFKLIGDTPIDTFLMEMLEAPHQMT
Test: LXR/LXRE co-transfection assay (luciferase reporter) in CV-1 cells, LXRβ
Format: cell-based
Conditions: for pEC50: CV-1 cells transfected with pCMX-hLXRβ and LXREx1-Tk-Luciferase, 20 hours incubation, read-out: LXRbeta agonism EC50; for Emax: read-out: LXRbeta % EFFICACY
Procedure, shortened: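 Luciferase read-out after 20 h compound treatment at 37 °C of CV-1 cells carrying transfected hLXRβ plus one-copy LXRE reporter, endogenous RXR partnering. Sigmoidal fit of 10-point half-log curves (4 wells each) gave EC50; % efficacy versus maximal response of the propionamide reference agonist.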

[1] = CV-1 cells, relative to maximum response of high control N-(3-((4-fluorophenyl)-(naphthalene-2-sulfonyl)amino)propyl)-2,2-dimethylpropionamide

pEC50 | Emax [1] [%] | LXRbeta % EFFICACY [1] [%] | Compound
6.82 | 99 | – | Cc1cc(C(F)(F)F)nn1-c1ccc(-c2cccc(S(C)(=O)=O)c2)cc1-n1nncc1-c1ccc(OC(F)(F)F)cc1 [Example 300, 1-{3′-(methylsulfonyl)-4-[5-methyl-3-(trifluoromethyl)-1H-pyrazol-1-yl]biphenyl-3-yl}-5-{4-[(trifluoromethyl)oxy]phenyl}-1H-1,2,3-triazole]
7.55 | 23 | – | Cc1nc(-c2ccc(OC(F)(F)F)cc2)c(-c2cc(-c3cc(F)c(CO)c(S(C)(=O)=O)c3)ccc2-n2ccc(C(C)(C)C#N)n2)o1 [Example 377, 2-(1-(3′-fluoro-4′-(hydroxymethyl)-3-(2-methyl-4-(4-(trifluoromethoxy)phenyl)oxazol-5-yl)-5′-(methylsulfonyl)-[1,1′-biphenyl]-4-yl)-1H-pyrazol-3-yl)-2-methylpropanenitrile]
7.82 | 104 | – | Cc1c(C(C)(F)F)nn(C)c1-c1ccc(-c2ccc(CO)c(S(C)(=O)=O)c2)cc1-n1nncc1-c1ccc(OC(F)(F)F)cc1 [Example 11, (4′-(3-(1,1-difluoroethyl)-1,4-dimethyl-1H-pyrazol-5-yl)-3-(methylsulfonyl)-3′-(5-(4-(trifluoromethoxy)phenyl)-1H-1,2,3-triazol-1-yl)biphenyl-4-yl)methanol]
7.04 | 27 | – | Cc1nc(-c2ccc(OC(F)(F)F)cc2)c(-c2cc(-c3cc(F)c(CO)c(S(C)(=O)=O)c3)ccc2-n2ccc(C(C)(C)O)n2)o1 [Example 317, 2-(1-(3′-fluoro-4′-(hydroxymethyl)-3-(2-methyl-4-(4-(trifluoromethoxy)phenyl)oxazol-5-yl)-5′-(methylsulfonyl)biphenyl-4-yl)-1H-pyrazol-3-yl)propan-2-ol]
8.22 | 76 | – | Cc1nc(-c2ccc3c(c2)OC(F)(F)O3)c(-c2cc(-c3cc(F)c(CO)c(S(C)(=O)=O)c3)ccc2-c2cc([C@H](C)C#N)nn2C)o1 [Example 59, (S)-2-(5-(3-(4-(2,2-difluorobenzo[d][1,3]dioxol-5-yl)-2-methyloxazol-5-yl)-3′-fluoro-4′-(hydroxymethyl)-5′-(methylsulfonyl)-[1,1′-biphenyl]-4-yl)-1-methyl-1H-pyrazol-3-yl)propanenitrile]
6.41 | 41 | – | Cc1nc(-c2ccc3c(c2)OC(F)(F)O3)c(-c2cc(-c3cccc(S(C)(=O)=O)c3)ccc2-n2ccc(C(C)(C)O)n2)o1 [Example 357, 2-(1-(3-(4-(2,2-difluorobenzo[d][1,3]dioxol-5-yl)-2-methyloxazol-5-yl)-3′-(methylsulfonyl)-[1,1′-biphenyl]-4-yl)-1H-pyrazol-3-yl)propan-2-ol]
7.33 | 52 | – | Cc1nc(-c2ccc(OC(F)F)c(F)c2)c(-c2cc(-c3cc(F)c(CO)c(S(C)(=O)=O)c3)ccc2-c2cc(C(F)(F)C(N)=O)nn2C)o1 [Example 71, 2-(5-(3-(4-(4-(difluoromethoxy)-3-fluorophenyl)-2-methyloxazol-5-yl)-fluoro-4′-(hydroxymethyl)-5′-(methylsulfonyl)biphenyl-4-yl)-1-methyl-1H-pyrazol-3-yl)-2,2-difluoroacetamide]
6.45 | 52 | – | Cc1nc(-c2ccc3c(c2)OC(F)(F)O3)c(-c2cc(-c3cccc(S(C)(=O)=O)c3)ccc2-c2cc(C(=O)NCC3CC3)nn2C)o1 [Example 109, N-(cyclopropylmethyl)-5-(3-(4-(2,2-difluorobenzo[d][1,3]dioxol-5-yl)-2-methyloxazol-5-yl)-3′-(methylsulfonyl)-[1,1′-biphenyl]-4-yl)-1-methyl-1H-pyrazole-3-carboxamide]
7.70 | 59 | – | Cc1nc(-c2ccc(OC(F)(F)F)cc2)c(-c2cc(-c3cc(F)c(CO)c(S(C)(=O)=O)c3)ccc2-n2ccc(C(C)(F)F)n2)o1 [Example 313, (4′-(3-(1,1-difluoroethyl)-1H-pyrazol-1-yl)-3-fluoro-3′-(2-methyl-4-(4-(trifluoromethoxy)phenyl)oxazol-5-yl)-5-(methylsulfonyl)-[1,1′-biphenyl]-4-yl)methanol]
6.10 | 34 | – | Cc1nc(-c2cc(-c3cccc(S(C)(=O)=O)c3)ccc2-n2nc(C(F)(F)F)cc2C2CC2)c(-c2ccc(OC(F)(F)F)cc2)o1 [Example 312, 4-(4-(5-cyclopropyl-3-(trifluoromethyl)-1H-pyrazol-1-yl)-3′-(methylsulfonyl)biphenyl-3-yl)-2-methyl-5-(4-(trifluoromethoxy)phenyl)oxazole]
7.19 | 22 | – | Cc1nc(-c2ccc3c(c2)OC(F)(F)O3)c(-c2cc(-c3cccc(S(C)(=O)=O)c3)ccc2-n2ccc(C#N)n2)o1 [Example 362, 1-(3-(4-(2,2-difluorobenzo[d][1,3]dioxol-5-yl)-2-methyloxazol-5-yl)-3′-(methylsulfonyl)-[1,1′-biphenyl]-4-yl)-1H-pyrazole-3-carbonitrile]
7.52 | 53 | – | Cc1nc(-c2ccc(OC(F)F)cc2)c(-c2cc(-c3cccc(S(C)(=O)=O)c3)ccc2-n2ccc(C(F)(F)F)n2)o1 [Example 435, 4-(4-(difluoromethoxy)phenyl)-2-methyl-5-(3′-(methylsulfonyl)-4-(3-(trifluoromethyl)-1H-pyrazol-1-yl)-[1,1′-biphenyl]-3-yl)oxazole]
7.52 | 28 | – | Cc1nc(-c2ccc(OC(F)(F)F)cc2)c(-c2cc(-c3cc(F)c(CO)c(S(C)(=O)=O)c3)ccc2-n2cc(C#N)c(C3CC3)n2)o1 [Example 446, 3-cyclopropyl-1-(3′-fluoro-4′-(hydroxymethyl)-3-(2-methyl-4-(4-(trifluoromethoxy)phenyl)oxazol-5-yl)-5′-(methylsulfonyl)-[1,1′-biphenyl]-4-yl)-1H-pyrazole-4-carbonitrile]
6.11 | 68 | – | CC(O)C(F)(F)c1cc(-c2ccc(-c3cccc(S(C)(=O)=O)c3)cc2-n2nncc2-c2ccc(OC(F)(F)F)cc2)n(C)n1 (centres unmarked) [Example 1, 1,1-difluoro-1-(1-methyl-5-(3′-(methylsulfonyl)-3-(5-(4-(trifluoromethoxy)phenyl)-1H-1,2,3-triazol-1-yl)biphenyl-4-yl)-1H-pyrazol-3-yl)propan-2-ol]
5.82 | 22 | – | Cc1nc(-c2ccc3c(c2)OC(F)(F)O3)c(-c2cc(-c3cccc(S(C)(=O)=O)c3)ccc2-n2ccc(CO)n2)o1 [Example 363, (1-(3-(4-(2,2-difluorobenzo[d][1,3]dioxol-5-yl)-2-methyloxazol-5-yl)-3′-(methylsulfonyl)-[1,1′-biphenyl]-4-yl)-1H-pyrazol-3-yl)methanol]
8.15 | 86 | – | Cc1nc(-c2ccc3c(c2)OC(F)(F)O3)c(-c2cc(-c3cccc(S(C)(=O)=O)c3)ccc2-c2cc(C3(C#N)CC3)nn2C)o1 [Example 118, 1-(5-(3-(4-(2,2-difluorobenzo[d][1,3]dioxol-5-yl)-2-methyloxazol-5-yl)-3′-(methylsulfonyl)-[1,1′-biphenyl]-4-yl)-1-methyl-1H-pyrazol-3-yl) cyclopropanecarbonitrile]
7.42 | 86 | – | CNS(=O)(=O)c1cccc(-c2ccc(-c3cc(C(C)(F)F)nn3C)c(-n3nncc3-c3ccc(OC(F)(F)F)cc3)c2)c1 [Example 20, 4′-[3-(1,1-difluoroethyl)-1-methyl-1H-pyrazol-5-yl]-N-methyl-3′-(5-{4-[(trifluoromethyl)oxy]phenyl}-1H-1,2,3-triazol-1-yl)biphenyl-3-sulfonamide]
7.21 | 96 | – | COCC(F)(F)c1cc(-c2ccc(-c3cc(F)c(CO)c(S(C)(=O)=O)c3)cc2-n2nncc2-c2ccc(OC(F)(F)F)cc2)n(C)n1 [Example 17, [4′-{3-[1,1-difluoro-2-(methyloxy)ethyl]-1-methyl-1H-pyrazol-5-yl}-3-fluoro-5-(methylsulfonyl)-3′-(5-{4-[(trifluoromethyl)oxy]phenyl}-1H-1,2,3-triazol-1-yl)biphenyl-4-yl]methanol]
7.07 | – | 69 | Cc1nc(-c2ccc3c(c2)OC(F)(F)O3)c(-c2cc(-c3cccc(S(C)(=O)=O)c3)ccc2-c2cc(C(F)(F)CO)nn2C)o1 [Example 49, 2-(5-(3-(4-(2,2-difluorobenzo[d][1,3]dioxol-5-yl)-2-methyloxazol-5-yl)-3′-(methylsulfonyl)biphenyl-4-yl)-1-methyl-1H-pyrazol-3-yl)-2,2-difluoroethanol]
